Reference: patent US20150166505A1, “PYRIDINYL-SUBSTITUTED PYRAZOLYL CARBOXAMIDES” (GRÜNENTHAL GMBH, priority 2013, published 2015)
Where a name gives a salt, the structure may show the parent alone. Read-outs that look alike come from different tables or passages of the source.

Assays:
[1] = target: T1, CRAC channel (endogenous SOC in HEK293 cells) (Homo sapiens, UniProt Q96D31); assay: HEK Calcium Influx Assay (FLIPR); type: cell-based
T1 construct: endogenous in cells; host or cells: HEK293 (ECACC)
T1 sequence (Q96D31 whole entry): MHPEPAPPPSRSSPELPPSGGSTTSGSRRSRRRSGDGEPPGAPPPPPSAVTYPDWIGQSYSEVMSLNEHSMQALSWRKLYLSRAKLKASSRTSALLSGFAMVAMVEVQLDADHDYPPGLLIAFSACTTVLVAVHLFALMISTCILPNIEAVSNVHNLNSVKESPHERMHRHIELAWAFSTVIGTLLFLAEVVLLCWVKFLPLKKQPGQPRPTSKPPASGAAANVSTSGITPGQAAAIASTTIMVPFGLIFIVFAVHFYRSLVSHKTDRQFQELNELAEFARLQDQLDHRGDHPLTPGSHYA
Procedure: The effect of compounds of the invention on intracellular [Ca^2+] was tested in the HEK293 cell line (ECACC). HEK293 cells were cultured in DMEM/F12/Glutamax (Gibco) containing 10% FCS (Gibco), and maintained at 37° C., 5% CO2. Cell were split twice a week [3*10^6 (Mon-Thu) and 1*10^6 (Thu-Mon) cells/50 ml medium in T-175 ZK culture flasks, respectively]. Twenty four hours pre-experiment, cells were seeded on 96 well plates (Poly-D-Lysine 96well Black/Clear Plate, BD Biocoat REF 356640) at a density of 40,000 cells/well in DMEM/F12 (Gibco) containing 10% FCS (Gibco), and maintained at 37° C., 5% CO2. Prior to store-depletion, cell culture medium was removed and cells were loaded with the a Calcium-sensitive fluorescent dye comprised within the Calcium-4-assay kit (Molecular Devices) in nominally Ca^2+-free HBS buffer (140 mM NaCl, 4 mM KCl, 0.2 mM MgCl2, 11 mM D-glucose, and 10 mM HEPES, pH 7.4) according to manufacturer's instruction for 60 min at 37° C., 5% CO2. Passive depletion of intracellular Ca^2+-stores was then triggered by employing the SERCA inhibitor thapsigargin (2 μM final) for 10 min in the dark (RT). To prevent immediate Ca^2+-entry via the activated Store-operated channels (SOCs), cells were maintained in Ca^2+-free HBS buffer comprising 100 μM EGTA during store-depletion. Intracellular changes in [Ca^2+] were subsequently monitored with the FLIPR device (Molecular Devices). In brief, baseline imaging post-store depletion was allowed for 1 min before adjusting the extracellular buffer to 3 mM CaCl2. Increases in intracellular [Ca^2+] due to pre-activated SOC channels were monitored for 15 min until intracellular Ca^2+ levels had declined into a steady-state. Finally, compounds were administered and Ca^2+ signals were recorded for additional 10 min. Inhibition of endogenous SOC in HEK293 cells was quantified employing the average Ca^2+ signal measured from 9.5-10 min post-administration. Zero percent inhibition (MAX) was defined as the Ca^2+ signal recorded from wells to which DMSO-only had been added instead of compound. Hundred percent inhibition (MIN) was defined as the signal obtained from wells in which cells haven't been treated with TG prior to Ca^2+ addition and to which DMSO-only had been added instead of compound. For routine IC50 determinations of compounds, 8 concentrations of a serial dilution (1:3.16) were tested, starting off from 10 μM. Reliable IC50's could consequently be determined only, if they were at least sub 2.5-3 μM.

[2] = test system: Interleukin-2 (IL-2) production/release in Jurkat T cell line; assay: Jurkat IL-2 Production Assay; type: cell-based; details: Homo sapiens; Jurkat T cells, PHA stimulation 22 hours
Procedure: Jurkat IL-2 Production Assay
The effect of compounds of the invention on Interleukin-2 (IL-2) production/release was tested in the Jurkat T cell line (ECACC) clone E6-1. Jurkat T cells were cultured in DMEM/F12/Glutamax (Gibco) containing 10% FCS (Gibco), and maintained at 37° C., 5% CO2. Cell were split twice a week [5*10^6 (Mon-Thu) and 1*10^7 (Thu-Mon) cells/50 ml medium in T-175 ZK culture flasks, respectively]. Prior to experiment, cells were seeded on 96 well plates (Cellstar 96 Well; Cat No. 655180, Greiner bio-one) at a density of 5*10^5 cells/well in DMEM/F12/Glutamax (Gibco) containing 10% FCS (Gibco), and incubated for 60 min at 37° C., 5% CO2. Subsequently, compounds were added and cells were allowed to incubate for 30 min at 37° C., 5% CO2. Cells were then stimulated with 15 μg/ml Phytohemagglutinin (PHA; Sigma) for 22 hours at 37° C., 5% CO2. Before sampling of the supernatants, cells were spun down (200*g/5 min/RT). The amount of IL-2 released into the supernatant was quantified with the human IL-2 AlphaLisa kit (Perkin Elmer) according to manufacturer's instructions. Luminescence proximity measurements were carried out in the Synergy H4 reader (BioTek) employing the fluorescence setting of the reader (ex: 680/30 nm; em: 620/40 nm). Inhibition of IL-production/release in/from Jurkat T cells was quantified as follows: Zero percent inhibition (MAX) was defined as the [IL-2] determined in supernatants derived from cells to which PHA & DMSO-only had been added instead of compound. Hundred percent inhibition (MIN) was defined as the [IL-2] determined in supernatants derived from cells that had been pre-treated with 1 μM CyclosporineA (Sigma) before the addition of 15 μg/ml PHA. For routine IC50 determinations of compounds, 8 concentrations of a serial dilution (1:3.16) were tested, starting off from 10 μM.

[3] = thapsigargin store depletion, read-out: % inhib. [@ 10 μM] FLIPR
[4] = numeric values of Table 2, read-out: inhib. [@ 10 μM] FLIPR

Row | inhibition at 10 µM [1, 3] | IC50 [2] | inhibition at 10 µM [1, 4] | SMILES
1 | > 70% | 1 to 5 µM | – | Cn1nc(C(=O)Nc2c(F)cncc2F)cc1-c1cnc(C2CC2)cc1C(F)(F)F [Example 63, 5-[6-Cyclopropyl-4-(trifluoromethyl)-pyridin-3-yl]-N-(3,5-difluoro-pyridin-4-yl)-1-methyl-1H-pyrazole-3-carboxylic acid amide]
2 | 50 to 70% | 1 to 5 µM | – | CCOc1ncc(-c2cc(C(=O)Nc3c(F)cncc3F)nn2C)c(C)c1F [Example 36, N-(3,5-Difluoro-pyridin-4-yl)-5-(6-ethoxy-5-fluoro-4-methyl-pyridin-3-yl)-1-methyl-1H-pyrazole-3-carboxylic acid amide]
3 | 50 to 70% | 1 to 5 µM | – | COc1cc(OCC2COC2)ncc1-c1cc(C(=O)Nc2c(F)cccc2F)nn1C [Example 51, N-(2,6-Difluoro-phenyl)-5-[4-methoxy-6-(oxetan-3-yl-methoxy)-pyridin-3-yl]-1-methyl-1H-pyrazole-3-carboxylic acid amide]
4 | > 70% | 0.5 to 1 µM | – | Cn1nc(C(=O)Nc2c(F)cccc2F)cc1-c1cnc(C2CC2)cc1C(F)(F)F [Example 48, 5-[6-Cyclopropyl-4-(trifluoromethyl)-pyridin-3-yl]-N-(2,6-difluoro-phenyl)-1-methyl-1H-pyrazole-3-carboxylic acid amide]
5 | > 70% | 1 to 5 µM | – | CCOc1cc(OC)c(-c2cc(C(=O)Nc3c(F)cccc3F)n[nH]2)cn1 [Example 68, N-(2,6-Difluoro-phenyl)-5-(6-ethoxy-4-methoxy-pyridin-3-yl)-1H-pyrazole-3-carboxylic acid amide hydrochloride]
6 | > 70% | 0.5 to 1 µM | – | COc1cc(Cl)c(-c2cc(C(=O)Nc3c(F)cccc3F)nn2C)cn1 [Example 56, 5-(4-Chloro-6-methoxy-pyridin-3-yl)-N-(2,6-difluoro-phenyl)-1-methyl-1H-pyrazole-3-carboxylic acid amide]
7 | 50 to 70% | 1 to 5 µM | – | COc1cc(OC)c(-c2c(C)c(C(=O)Nc3cnc(C)cc3C)nn2C)cn1 [Example 66, 5-(4,6-Dimethoxy-pyridin-3-yl)-N-(4,6-dimethyl-pyridin-3-yl)-1,4-dimethyl-1H-pyrazole-3-carboxylic acid amide]
8 | > 70% | < 0.5 µM | – | COc1cc(OC(F)F)ncc1-c1cc(C(=O)Nc2c(F)cccc2F)nn1C [Example 43, 5-[6-(Difluoro-methoxy)-4-methoxy-pyridin-3-yl]-N-(2,6-difluoro-phenyl)-1-methyl-1H-pyrazole-3-carboxylic acid amide]
9 | > 70% | < 0.5 µM | – | CCOc1cc(OCC)c(-c2cc(C(=O)Nc3c(F)cncc3F)nn2C)cn1 [Example 15, 5-(4,6-Diethoxy-pyridin-3-yl)-N-(3,5-difluoro-pyridin-4-yl)-1-methyl-1H-pyrazole-3-carboxylic acid amide]
10 | > 70% | 1 to 5 µM | – | CCOc1cc(C(F)(F)F)c(-c2cc(C(=O)Nc3c(F)cncc3F)nn2C)cn1 [Example 31, N-(3,5-Difluoro-pyridin-4-yl)-5-[6-ethoxy-4-(trifluoromethyl)-pyridin-3-yl]-1-methyl-1H-pyrazole-3-carboxylic acid amide]
11 | > 70% | < 0.5 µM | – | COc1cc(OC(F)F)ncc1-c1cc(C(=O)Nc2c(F)cncc2F)nn1C [Example 44, 5-[6-(Difluoro-methoxy)-4-methoxy-pyridin-3-yl]-N-(3,5-difluoro-pyridin-4-yl)-1-methyl-1H-pyrazole-3-carboxylic acid amide]
12 | > 70% | < 0.5 µM | 92% | Cc1cc(OC(F)(F)F)ncc1-c1cc(C(=O)Nc2c(F)cccc2F)nn1C [Example 12, N-(2,6-Difluoro-phenyl)-1-methyl-5-[4-methyl-6-(trifluoromethyloxy)-pyridin-3-yl]-1H-pyrazole-3-carboxylic acid amide]
13 | 50 to 70% | 1 to 5 µM | – | COc1cc(OC2COC2)ncc1-c1cc(C(=O)Nc2c(F)cccc2F)nn1C [Example 62, N-(2,6-Difluoro-phenyl)-5-[4-methoxy-6-(oxetan-3-yloxy)-pyridin-3-yl]-1-methyl-1H-pyrazole-3-carboxylic acid amide]
14 | > 70% | 0.5 to 1 µM | 100% | Cc1cc(C(F)(F)F)ncc1-c1cc(C(=O)Nc2c(F)cccc2F)nn1C [Example 60, N-(2,6-Difluoro-phenyl)-1-methyl-5-[4-methyl-6-(trifluoromethyl)-pyridin-3-yl]-1H-pyrazole-3-carboxylic acid amide]
15 | > 70% | < 0.5 µM | – | CCOc1cc(OC)c(-c2cc(C(=O)Nc3c(F)cccc3F)nn2C)cn1 [Example 16, N-(2,6-Difluoro-phenyl)-5-(6-ethoxy-4-methoxy-pyridin-3-yl)-1-methyl-1H-pyrazole-3-carboxylic acid amide]
16 | > 70% | 1 to 5 µM | – | COc1cc(OC)c(-c2c(Cl)c(C(=O)Nc3c(F)cccc3F)nn2C)cn1 [Example 57, 4-Chloro-N-(2,6-difluoro-phenyl)-5-(4,6-dimethoxy-pyridin-3-yl)-1-methyl-1H-pyrazole-3-carboxylic acid amide]
17 | > 70% | 1 to 5 µM | 67% | CCc1cc(C)c(-c2cc(C(=O)Nc3c(F)cccc3F)nn2C)cn1 [Example 6, N-(2,6-Difluoro-phenyl)-5-(6-ethyl-4-methyl-pyridin-3-yl)-1-methyl-1H-pyrazole-3-carboxylic acid amide]
18 | < 50% | 1 to 5 µM | – | CCOc1ncc(-c2cc(C(=O)Nc3c(F)cccc3F)nn2C)c(C)c1F [Example 35, N-(2,6-Difluoro-phenyl)-5-(6-ethoxy-5-fluoro-4-methyl-pyridin-3-yl)-1-methyl-1H-pyrazole-3-carboxylic acid amide]
19 | > 70% | 0.5 to 1 µM | 76% | Cc1cc(OC2CC2)ncc1-c1cc(C(=O)Nc2c(F)cncc2F)nn1C [Example 9, 5-(6-Cyclopropyloxy-4-methyl-pyridin-3-yl)-N-(3,5-difluoro-pyridin-4-yl)-1-methyl-1H-pyrazole-3-carboxylic acid amide]
20 | > 70% | 0.5 to 1 µM | 83% | Cc1cc(OC2CC2)ncc1-c1cc(C(=O)Nc2c(F)cccc2F)nn1C [Example 10, 5-(6-Cyclopropyloxy-4-methyl-pyridin-3-yl)-N-(2,6-difluoro-phenyl)-1-methyl-1H-pyrazole-3-carboxylic acid amide]
21 | > 70% | 0.5 to 1 µM | 100% | Cc1cc(OC(C)C)ncc1-c1cc(C(=O)Nc2c(F)cccc2F)nn1C [Example 13, N-(2,6-Difluoro-phenyl)-5-(6-isopropoxy-4-methyl-pyridin-3-yl)-1-methyl-1H-pyrazole-3-carboxylic acid amide]
